{"source": "patent US10888536B1", "about": "“Method of improvement of insulin sensitivity in obese patients” (FOOYIN UNIVERSITY, priority 2019, dated 2021)", "key": {"[1]": {"tested_on": "mouse macrophage (J774A.1 cell line)", "test": "ATP level in J774A.1 cells by ATP luminometer (Trial A)", "format": "cell-based", "procedure": "To evaluate propanamide can increase of ATP synthesis, mouse macrophage (J774A.1 cell line) was used as the cell model. The J774A.1 cells without treatment were used as group A0. ATP level in the J774A.1 cells of groups A0-A5 were analyzed by ATP luminometer, respectively. The unit of ATP level is relative light unit (R.L.U)."}, "TNF-α": {"tested_on": "TNF-α", "test": "TNF-α level in medium of J774A.1 cells with or without LPS (Trial B)", "format": "cell-based, mouse", "procedure": "The increase of cellular ATP can change the activity of macrophage, inhibiting the production of the proinflammatory cytokine, TNF-α, as well as the inflammation. After 15 minutes, 200 ng/ml lipopolysaccharide (LPS) was used to induce the inflammation in the J774A.1 cells of groups B1, B3 and B5. The medium of the J774A.1 cells was collected, and the TNF-α level in the medium was detected by a commercial kit."}, "obese mice": {"tested_on": "obese mice", "test": "Fasting blood glucose in high fat diet obese mice (Trial C)", "format": "in vivo, Male ICR mice", "conditions": "high fat diet containing 3 ppm propanamide for 2 weeks (group C2), fasted 18 hours (FIG. 5)", "from_the_text": "Male ICR mice were used as the animal model in Trial (C). […] The obese mice of group C1 were then fed by the high fat diet for another 2 weeks, while the obese mice of group C2 were fed by the high fat diet containing 3 ppm propanamide for further 2 weeks. The normal mice of group C0 were fed by normal diet for 19 weeks. After 19 weeks, the mice of groups C0-C2 were sacrificed, and the effect of propanamide on reducing the accumulation of visceral fat was estimated by weight of epididymal fat (% of body weight). Before being sacrificed, the mice of groups C0-C2 were fasted for 18 hours, and the levels of fasting blood glucose of the mice were measured. Referring to FIG. 5, the levels of fasting blood glucose of the obese mice fed by the high fat diet (group C1) were higher than that of the normal mice fed by the normal diet (group C0)."}, "obese rats [2]": {"tested_on": "obese rats", "test": "Oral glucose tolerance test (OGTT) in high fat diet obese rats (Trial D)", "format": "in vivo, Wistar male rats", "procedure": "(§1) Wistar male rats were used as the animal model in Trial (D). […] The obese rats of group D1 were then fed by the high fat diet without propanamide for another 4 weeks (total 23 weeks), while the obese rats of group D2 and D3 were fed by the high fat diet respectively containing 1 ppm and 3 ppm propanamide for further 4 weeks, The normal rats of group D0 were fed by normal diet for 23 weeks (total 23 weeks). At the 22th week, the oral glucose tolerance tests (OGTT) were performed as following: the rats of groups D0-D3 were fasted for 18 hours, and then were administered a 20% glucose solution (2 g glucose/kg body weight) by gavage. Blood samples were collected and the glucose concentrations were detected at 0, 30, 60, 90, and 120 minutes after glucose loading."}, "obese rats [3]": {"tested_on": "obese rats", "test": "Fasting serum insulin in high fat diet obese rats (Trial D)", "format": "in vivo, Wistar male rats", "conditions": "1 and 3 ppm propanamide in high fat diet for 4 weeks (groups D2 and D3), fasted 18 hours, 23rd week (FIG. 7)", "procedure": "as §1, with “loading. At 23th week, the rats of groups D0-D3 were fasted for 18 hours before scarification, and the serum were analyzed the level of insulin.” for “loading.”"}}}
{"smiles": "CCC(N)=O", "note": "[propanamide]", "values": [{"measurement": "dose dependence of ATP production", "setting": "[1]; concentration below 4 μM, 6 hours (FIG. 2)", "value": "dose-dependent response"}, {"measurement": "ATP level in the J774A.1 cells", "setting": "[1]; propanamide 0.04-400 μM, 6 hours, vs untreated cells (FIG. 2)", "value": "effectively elevate ATP level"}, {"measurement": "production of TNF-α not induced by LPS", "setting": "TNF-α; propanamide 4 and 40 μM (groups B2 and B4), no LPS (FIG. 3)", "value": "also inhibit the production of TNF-α"}, {"measurement": "production of TNF-α induced by LPS", "setting": "TNF-α; propanamide 4 and 40 μM (groups B3 and B5), 200 ng/ml LPS after 15 minutes (FIG. 3)", "value": "effectively inhibit the production of TNF-α induced by LPS"}, {"measurement": "levels of fasting blood glucose", "setting": "obese mice", "value": "decreased significantly"}, {"measurement": "area under curve (AUC) of blood glucose in OGTT", "setting": "obese rats [2]; 1 and 3 ppm propanamide in high fat diet (groups D2 and D3) (FIG. 6b)", "value": "decreased significantly"}, {"measurement": "blood glucose during OGTT vs group D1", "setting": "obese rats [2]; 1 ppm and 3 ppm propanamide in high fat diet (groups D2 and D3), 120 minutes after glucose loading (FIG. 6a)", "value": "significantly lower"}, {"measurement": "blood glucose in untreated obese rats (group D1) relative to group D2 during OGTT", "setting": "obese rats [2]; 1 ppm propanamide in high fat diet (group D2), 90 minutes to 120 minutes after glucose loading (FIG. 6a)", "value": "evidently higher"}, {"measurement": "fasting serum insulin", "setting": "obese rats [3]", "value": "reduced to normal level"}]}
